Values quoted from earlier work, collected in patent publication US11472859B2, “Method and composition for treating neuronal hyper-excitabtiity” (The Regents of the University of California, priority 2016, dated 2022).
Entries after “also recorded” stand apart in the source; their conditions may differ.

Key:
[1] = test system: spasticity; conditions: for anti-spasticity effect: systemic or spinal administration, clinical (and experimental animal) studies
[2] = test system: brain or spinal parenchymal GABA release; conditions: after systemic delivery

SMILES | side effects ([1]; clinical use, systemic or spinal) | anti-spasticity effect [1] | potentiation of brain or spinal parenchymal GABA release [2]
NCC(CC(=O)O)c1ccc(Cl)cc1 (stereo not shown) [baclofen] | major side effects such as general sedation and progressive tolerance development; also recorded: unwanted systemic side effects such as sedation | most potent anti-spasticity pharmacological treatment; also recorded: effective in modulating spasticity; also recorded: potent antispasticity effect | –
Cc1ccsc1C(=CCCN1CCC[C@@H](C(=O)O)C1)c1sccc1C [tiagabine] | – | only a weak or no anti-spasticity effect | relatively modest potentiation
